Counter-ions that a name gives are not always drawn.
What was measured:
[1] = molecular target: human MCH-1 receptor (Homo sapiens (Human), UniProt Q99705); experiment: Binding assay for human melanin-concentrating hormone (MCH1) receptor; conditions: membranes from CHO-K1 cells expressing human MCH1 receptor, 1.4 nM [3H]-labeled radioligand, 60 min at 25° C., pH 7.4, Ki from Cheng Prusoff equation
Description: Binding Assay for Human Melanin-Concentrating Hormone (MCH1) Receptor
Evaluation of the affinity of compounds for the human MCH-1 receptor was accomplished using 4-(3,4,5-tritritiumbenzyloxy)-1-(1-(2-(pyrrolidin-1-yl)ethyl)-1H-indazol-5-yl)pyridin-2(1H)-one and membranes prepared from stable CHO-K1 cells expressing the human MCH1 receptor obtained from Euroscreen (Batch 1138). Cell membrane homogenates (8.92 μg protein) were incubated for 60 min at 25° C. with 1.4 nM of the [^3H]-labeled compound in the absence or presence of the test compound in 50 mM Tris-HCl buffer, pH 7.4. Nonspecific binding was determined in the presence of 50 μM 1-(5-(4-cyanophenyl)bicyclo[3.1.0]hexan-2-yl)-3-(4-fluoro-3-(trifluoromethyl)phenyl)-1-(3-(4-methylpiperazin-1-yl)propyl)urea. Following incubation, the samples were filtered rapidly under vacuum through Skatron 11731 filters, pre-soaked in 0.5% polyethylenimine, and washed with ice-cold 50 mM Tris-HCl buffer, pH 7.4, (wash setting 9,9,0) using a Skatron cell harvester. The filters were counted for radioactivity in a liquid scintillation counter (Tri-Carb 2100TR, Packard) using a scintillation cocktail (Ultima Gold MV, Perkin Elmer).
The results are expressed as a percent inhibition of the control radioligand specific binding. The IC50 value (concentration causing a half-maximal inhibition of control specific binding) and Hill coefficient (nH) were determined by non-linear regression analysis of the competition curve using Hill equation curve fitting. The inhibition constant (Ki) was calculated from the Cheng Prusoff equation: (Ki=IC50/(1+(L/KD)), where L=concentration of radioligand in the assay, and KD=affinity of the radioligand for the receptor.

human MCH-1 receptor, sequence (Q99705 whole entry): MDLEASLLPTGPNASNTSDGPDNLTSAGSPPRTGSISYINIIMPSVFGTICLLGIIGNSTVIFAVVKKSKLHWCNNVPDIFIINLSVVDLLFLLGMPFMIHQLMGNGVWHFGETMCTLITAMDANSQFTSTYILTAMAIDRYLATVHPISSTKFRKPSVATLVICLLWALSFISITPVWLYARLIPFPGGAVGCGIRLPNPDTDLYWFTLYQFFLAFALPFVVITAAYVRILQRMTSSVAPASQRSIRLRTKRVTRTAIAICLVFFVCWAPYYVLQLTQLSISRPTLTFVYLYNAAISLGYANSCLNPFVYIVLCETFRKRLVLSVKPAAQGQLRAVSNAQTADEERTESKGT

Compound	melting point	Ki [1] [nM]	further results
Cn1c2c(c3ccc(-n4ccc(OCc5ccc(F)cn5)cc4=O)cc31)CN1CCCC1C2 (stereo not shown) (as salt: hydrochloride) [Example 12, 4-((5-Fluoropyridin-2-yl)methoxy)-1-(10-methyl-2,3,5,10,11,11a-hexahydro-1H-indolizino[7,6-b]indol-8-yl)pyridin-2(1H)-one Hydrochloride]	290 to 293 °C	–	–
Cc1ccc(-c2ccn(-c3ccc4c5c(n(C)c4c3)CC3CCCN3C5)c(=O)c2)cn1 (stereo not shown) (as salt: hydrochloride) [Example 13, 1-(10-Methyl-2,3,5,10,11,11a-hexahydro-1H-indolizino[7,6-b]indol-8-yl)-4-(6-methylpyridin-3-yl)pyridin-2(1H)-one Hydrochloride]	305 °C (dec.)	–	–
Cc1ccc(-c2ccn(-c3ccc4c5c(n(C)c4c3)CCN3CCCC53)c(=O)c2)cn1 (stereo not shown) (as salt: hydrochloride) [Example 15, 1-(7-Methyl-2,3,5,6,7,11c-hexahydro-1H-indolizino[7,8-b]indol-9-yl)-4-(6-methylpyridin-3-yl)pyridin-2(1H)-one Hydrochloride]	280 to 283 °C	–	–
Cn1c2c(c3ccc(-n4ccc(OCc5ccc(F)cn5)cc4=O)cc31)C1CCCN1CC2 (stereo not shown) (as salt: hydrochloride) [Example 19, 4-((5-Fluoropyridin-2-yl)methoxy)-1-(7-methyl-2,3,5,6,7,11c-hexahydro-1H-indolizino[7,8-b]indol-9-yl)pyridin-2(1H)-one Dihydrochloride]	240 to 243 °C	–	–
Cc1ccc(COc2ccn(-c3ccc4c5c(n(C)c4c3)CCN3CCCC53)c(=O)c2)cn1 (stereo not shown) (as salt: hydrochloride) [Example 20, 1-(7-Methyl-2,3,5,6,7,11c-hexahydro-1H-indolizino[7,8-b]indol-9-yl)-4-((6-methylpyridin-3-yl)methoxy)pyridin-2(1H)-one Dihydrochloride]	280 to 282 °C	–	–
Cn1c2c(c3ccc(-n4ccc(OCc5ccc(F)cn5)cc4=O)cc31)C1CCCCN1CC2 (stereo not shown) (as salt: hydrochloride) [Example 21, 4-((5-Fluoropyridin-2-yl)methoxy)-1-(8-methyl-1,2,3,4,6,7,8,12c-octahydroindolo[3,2-a]quinolizin-10-yl)pyridin-2(1H)-one Hydrochloride]	256 to 258 °C	–	–
Cc1ccc(COc2ccn(-c3ccc4c5c(n(C)c4c3)CCN3CCCCC53)c(=O)c2)cn1 (stereo not shown) (as salt: hydrochloride) [Example 23, 1-(8-Methyl-1,2,3,4,6,7,8,12c-octahydroindolo[3,2-a]quinolizin-10-yl)-4-((6-methylpyridin-3-yl)methoxy)pyridin-2(1H)-one Dihydrochloride]	210 to 214 °C	–	–
Cc1ccc(COc2ccn(-c3ccc4c5c(n(C)c4c3)CC3CCCN3C5)c(=O)c2)cn1 (stereo not shown) (as salt: hydrochloride) [Example 31, 1-(10-Methyl-2,3,5,10,11,11a-hexahydro-1H-indolizino[7,6-b]indol-8-yl)-4-((6-methylpyridin-3-yl)methoxy)pyridin-2(1H)-one Hydrochloride]	260 to 263 °C	–	–
Cn1c2c(c3ccc(-n4ccc(OCc5ccccc5)cc4=O)cc31)CCN1CCCCCC21 (stereo not shown) [Example 10, 4-(Benzyloxy)-1-(13-methyl-2,3,4,5,7,8,13,13b-octahydro-1H-pyrido[1,2-a]azepino[10,9-b]indol-10-yl)pyridin-2(1H)-one Hydrochloride]	–	47	–
Cc1ccc(-c2ccn(-c3ccc4c5c(n(C)c4c3)CC3CCCN3C5)c(=O)c2)cn1 (stereo not shown) [Example 13, 1-(10-Methyl-2,3,5,10,11,11a-hexahydro-1H-indolizino[7,6-b]indol-8-yl)-4-(6-methylpyridin-3-yl)pyridin-2(1H)-one Hydrochloride]	–	59	–
Cc1ccc(-c2ccn(-c3ccc4c5c(n(C)c4c3)CCN3CCCC53)c(=O)c2)cn1 (stereo not shown) [Example 15, 1-(7-Methyl-2,3,5,6,7,11c-hexahydro-1H-indolizino[7,8-b]indol-9-yl)-4-(6-methylpyridin-3-yl)pyridin-2(1H)-one Hydrochloride]	–	76	–
Cn1c2c(c3ccc(-n4ccc(OCc5ccc(F)cn5)cc4=O)cc31)C1CCCN1CC2 (stereo not shown) [Example 19, 4-((5-Fluoropyridin-2-yl)methoxy)-1-(7-methyl-2,3,5,6,7,11c-hexahydro-1H-indolizino[7,8-b]indol-9-yl)pyridin-2(1H)-one Dihydrochloride]	–	11	–
Cc1ccc(COc2ccn(-c3ccc4c5c(n(C)c4c3)CCN3CCCC53)c(=O)c2)cn1 (stereo not shown) [Example 20, 1-(7-Methyl-2,3,5,6,7,11c-hexahydro-1H-indolizino[7,8-b]indol-9-yl)-4-((6-methylpyridin-3-yl)methoxy)pyridin-2(1H)-one Dihydrochloride]	–	13	–
Cn1c2c(c3ccc(-n4ccc(OCc5ccc(F)cn5)cc4=O)cc31)C1CCCCN1CC2 (stereo not shown) [Example 21, 4-((5-Fluoropyridin-2-yl)methoxy)-1-(8-methyl-1,2,3,4,6,7,8,12c-octahydroindolo[3,2-a]quinolizin-10-yl)pyridin-2(1H)-one Hydrochloride]	–	8.4	–
Cc1ccc(COc2ccn(-c3ccc4c5c(n(C)c4c3)CCN3CCCCC53)c(=O)c2)cn1 (stereo not shown) [Example 23, 1-(8-Methyl-1,2,3,4,6,7,8,12c-octahydroindolo[3,2-a]quinolizin-10-yl)-4-((6-methylpyridin-3-yl)methoxy)pyridin-2(1H)-one Dihydrochloride]	–	19	–
O=c1cc(OCc2ccccc2)ccn1-c1ccc2c3c([nH]c2c1)CCN1CCCC31 (stereo not shown) [Example 24, 4-(Benzyloxy)-1-(2,3,5,6,7,11c-hexahydro-1H-indolizino[7,8-b]indol-9-yl)pyridin-2(1H)-one Hydrochloride]	–	6	–
O=c1cc(OCc2ccc(F)cn2)ccn1-c1ccc2c3c([nH]c2c1)CCN1CCCC31 (stereo not shown) [Example 25, 4-((5-Fluoropyridin-2-yl)methoxy)-1-(2,3,5,6,7,11c-hexahydro-1H-indolizino[7,8-b]indol-9-yl)pyridin-2(1H)-one Hydrochloride]	–	14	–
Cc1ccc(COc2ccn(-c3ccc4c5c(n(C)c4c3)CC3CCCN3C5)c(=O)c2)cn1 (stereo not shown) [Example 31, 1-(10-Methyl-2,3,5,10,11,11a-hexahydro-1H-indolizino[7,6-b]indol-8-yl)-4-((6-methylpyridin-3-yl)methoxy)pyridin-2(1H)-one Hydrochloride]	–	22	–
Cc1ccc(COc2ccn(-c3ccc4c5c(n(C)c4c3)CC3CCCCN3C5)c(=O)c2)cn1 (stereo not shown) [Example 33, 1-(5-Methyl-5,6,6a,7,8,9,10,12-octahydroindolo[2,3-b]quinolizin-3-yl)-4-((6-methylpyridin-3-yl)methoxy)pyridin-2(1H)-one Dihydrochloride]	–	31	–
Cc1ccc(-c2ccn(-c3ccc4c5c(n(C)c4c3)CC3CCCCN3C5)c(=O)c2)cn1 (stereo not shown) [Example 35, 1-(5-Methyl-5,6,6a,7,8,9,10,12-octahydroindolo[2,3-b]quinolizin-3-yl)-4-(6-methylpyridin-3-yl)pyridin-2(1H)-one Dihydrochloride]	–	193	–
Cn1c2c(c3ccc(-n4ccc(OCc5ccc(F)cn5)cc4=O)cc31)CN1CCCCC1C2 (stereo not shown) [Example 37, 4-((5-Fluoropyridin-2-yl)methoxy)-1-(5-methyl-5,6,6a,7,8,9,10,12-octahydroindolo[2,3-b]quinolizin-3-yl)pyridin-2(1H)-one Dihydrochloride]	–	–	Ki ([1]; Dihydrochloride): 10 nM
O=c1cc(OCc2ccc(F)cn2)ccn1-c1ccc2c3c([nH]c2c1)CC1CCCN1C3 (stereo not shown) [Example 40, 4-((5-Fluoropyridin-2-yl)methoxy)-1-(2,3,5,10,11,11a-hexahydro-1H-indolizino[7,6-b]indol-8-yl)pyridin-2(1H)-one Hydrochloride]	–	14	–
O=c1cc(OCc2ccc(Cl)cc2F)ccn1-c1ccc2c3c([nH]c2c1)CC1CCCN1C3 (stereo not shown) [Example 42, 4-(4-Chloro-2-fluorobenzyloxy)-1-(2,3,5,10,11,11a-hexahydro-1H-indolizino[7,6-b]indol-8-yl)pyridin-2(1H)-one Hydrochloride]	–	19	–
Cn1c2c(c3ccc(-n4ccc(OCc5ccc(F)cn5)cc4=O)cc31)CCN1CCCC21 (stereo not shown) [Example 43, 4-((5-Fluoropyridin-2-yl)methoxy)-1-(11-methyl-2,3,5,6,11,11b-hexahydro-1H-indolizino[8,7-b]indol-9-yl)pyridin-2(1H)-one Dihydrochloride]	–	26	–
Cn1c2c(c3ccc(-n4ccc(OCc5ccc(F)cn5)cc4=O)nc31)C1CCCN1CC2 (stereo not shown) [Example 45, 4-((5-Fluoropyridin-2-yl)methoxy)-1-(7-methyl-2,3,5,6,7,11c-hexahydro-1H-pyrido[3′,2′:4,5]pyrrolo[2,3-g]indolizin-9-yl)pyridin-2(1H)-one Hydrochloride]	–	21	–

Reference: patent US8618299B2, “Azinone-substituted azapolycycle MCH-1 antagonists, methods of making, and use thereof” (Albany Molecular Research, Inc., priority 2009, dated 2013)
